According to PMC8843100, “Development of newly synthesised quinazolinone-based CDK2 inhibitors with potent efficacy against melanoma” (Journal of Enzyme Inhibition and Medicinal Chemistry, 2022):

Columns and labels:
786-0 = test: NCI-60 single dose screen, sulforhodamine B; assay type: cell-based, human; conditions: Renal cancer 786-0; single dose 10^−5 M
Method in brief: (§1)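 Tested once, at 10^−5 M in DMSO, the compounds stayed on the cells for 2 days before SRB staining. A time-zero control, set one day after seeding, lets cell kill be told apart from growth inhibition.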

M14 = test: NCI-60 single dose screen, sulforhodamine B; assay type: cell-based, human; conditions: Melanoma M14; single dose 10^−5 M
Method in brief: as §1

ACHN = test: NCI-60 single dose screen, sulforhodamine B; assay type: cell-based, human; conditions: Renal cancer ACHN; single dose 10^−5 M
Method in brief: as §1

NCI-H322M = test: NCI-60 single dose screen, sulforhodamine B; assay type: cell-based, human; conditions: Non-small cell lung cancer NCI-H322M; single dose 10^−5 M
Method in brief: as §1

CCRF-CEM = test: NCI-60 single dose screen, sulforhodamine B; assay type: cell-based, human; conditions: Leukaemia CCRF-CEM; single dose 10^−5 M
Method in brief: as §1

SK-OV-3 = test: NCI-60 single dose screen, sulforhodamine B; assay type: cell-based, human; conditions: Ovarian cancer SK-OV-3; single dose 10^−5 M
Method in brief: as §1

[1] = system: melanoma MDA-MB-435 cells; test: Cell cycle analysis, PI flow cytometry; assay type: cell-based, human; conditions: MDA-MB-435, after 24 h at IC50 concentration
Protocol: 10% of the culture medium volume. Cultures were returned to incubator for 2–4 h. After the incubation period, cultures were removed from incubator and the resulting formazan crystals were dissolved by adding an amount of MTT solubilization solution [M-8910] equal to the original culture medium volume. Dissolution is enhanced by gentle mixing in a gyratory shaker. Then the absorbance is measured spectrophotometrically at a wavelength of 450 nm. The absorbance of multiwell plates was measured at 690 nm and subtracted from the 450 nm measurement. IC50 values (concentration of sample causing 50% loss of cell proliferation of the vehicle control) were calculated using non-linear regression curve fitting of the dose response plots on GraphPad Prism 7.0 software. Data presented are the results of at least three independent experiments. The results of these studies are presented as mean IC50 (μM) ± standard deviation (SD).
(§2) Melanoma MDA -MB-435 and glioblastoma SNB-75 cells were treated with the quinazolinone 5c for 24 h (at its IC50 concentration), and then cells were washed twice with ice - cold phosphate buffered saline (PBS). Consequently, the treated cells were collected by centrifugation, fixed in ice -cold 70% (v/v) ethanol, washed with PBS, re -suspended with 100 μg/mL RNase, stained with 40 μg/mL propidium iodide (PI), and analyzed by flow cytometry using FACS Calibur (Becton Dickinson, BD, Franklin Lakes, NJ, USA). The cell cycle distributions were calculated using Cell Quest software 5.1 (Becton Dickinson). […]

[2] = system: glioblastoma SNB-75 cells; test: Cell cycle analysis, PI flow cytometry; assay type: cell-based, human; conditions: SNB-75, after 24 h at IC50 concentration
Protocol: as §2

CDK2 = biological target: T1, CDK2 (Homo sapiens, UniProt P24941); test: CDK2 inhibition assay, colorimetric 96-well kit (BPS Bioscience); assay type: biochemical; conditions: in vitro kinase inhibition; read-out: IC50 (µM) ± SD against CDK2
T1 construct: purchased BPS Bioscience 79599
Protocol: It was reported that CDK2 is overexpressed in melanoma[44]^,[45].
CDK2 enzyme inhibition activity was measured for the quinazolinones 5c and 8a using a colorimetric 96-well CDK2 assay kit (BPS Bioscience) (catalog no. 79599), according to the manufacturer's protocol. All the IC50 values were calculated using GraphPad Prism 7.0 Software.
Figure S1. The pharmacokinetic profile of compound 5c using SwissADME web server.
(1 picture or pasted object on this page, not shown here)

[3] = system: glioblastoma cell line SNB-75; test: Detection of IC50, MTT assay; assay type: cell-based; conditions: Homo sapiens, read-out: IC50 (µM)±SD, 50% inhibition of cell viability, Glioblastoma SNB-75, 48 h
Protocol: (§3) 2. Detection of IC50 against MDA-MB-435, SNB-75 cell lines and normal cell line WI -38.
(§4) Antiproliferative activities of 5c in melanoma cell line MDA-MB-435, glioblastoma cell line SNB-75 and normal cell line WI -38 and that of 8a in melanoma cell line MDA-MB-435 and normal cell line WI-38 were measured spectrophotometrically using in vitro MTT based toxicology assay kit (catalog no. M -5655, M-8910) (Sigma Aldrich), according to the manufacturer’s protocol. The three examined cell lin es were obtained from American Type Culture Collection (ATCC). Briefly, cells were platted (cells density 1.2 – 1.8 × 10,000 cells/well) in a volume of 100 µl complete growth medium + 100 μl of the tested compound per well in a 96-well […]
(§5) salt solution without phenol red and serum.

[4] = system: melanoma cell line MDA-MB-435; test: Detection of IC50, MTT assay; assay type: cell-based; conditions: Homo sapiens, read-out: IC50 (µM)±SD, 50% inhibition of cell viability, Melanoma MDA-MB-435, 48 h
Protocol: as §3, §4, §5

[5] = system: normal fibroblast cells WI-38; test: Cytotoxic activity in normal cells, MTT assay; assay type: cell-based; conditions: Homo sapiens, WI-38 normal cells, 48 h, read-out: IC50 (µM) ± SD WI-38
Protocol: as §3, §4, §5

For `O=C(CNn1c(COc2ccccc2)nc2ccccc2c1=O)Nc1ccccc1` [Compound 4a, 2-((4-oxo-2-(phenoxymethyl)quinazolin-3(4H)-yl)amino)-N-phenylacetamide], the “GI% at 10^−5 M” value (786-0) was “– (– means GI < 10%)”, the “GI% at 10^−5 M” value (M14) was “– (– means GI < 10%)” and the “GI% at 10^−5 M” value (ACHN) was “– (– means GI < 10%)”. The “GI% at 10^−5 M” value (NCI-H322M) was “– (– means GI < 10%)” and the “GI% at 10^−5 M” value (CCRF-CEM) was “– (– means GI < 10%)”.
`COc1ccc(NC(=O)CNn2c(COc3ccccc3)nc3ccccc3c2=O)cc1` [Compound 4b, N-(4-methoxyphenyl)-2-((4-oxo-2-(phenoxymethyl)quinazolin-3(4H)-yl)amino)acetamide] was tested, and the “GI% at 10^−5 M” value (786-0) was “– (– means GI < 10%)”, the “GI% at 10^−5 M” value (M14) was “– (– means GI < 10%)” and the “GI% at 10^−5 M” value (ACHN) was “– (– means GI < 10%)”. For the same compound, the “GI% at 10^−5 M” value (NCI-H322M) was “– (– means GI < 10%)” and the “GI% at 10^−5 M” value (CCRF-CEM) was “– (– means GI < 10%)”.
With `O=C(CNn1c(COc2ccccc2)nc2ccccc2c1=O)Nc1ccc(Cl)cc1` [Compound 4c, N-(4-chlorophenyl)-2-((4-oxo-2-(phenoxymethyl)quinazolin-3(4H)-yl)amino)acetamide] the “GI% at 10^−5 M” value (786-0) was “– (– means GI < 10%)”, the “GI% at 10^−5 M” value (SK-OV-3) was 4.95% and the “GI% at 10^−5 M” value (M14) was “– (– means GI < 10%)”. For the same compound, the “GI% at 10^−5 M” value (ACHN) was “– (– means GI < 10%)”, the “GI% at 10^−5 M” value (NCI-H322M) was “– (– means GI < 10%)” and the “GI% at 10^−5 M” value (CCRF-CEM) was “– (– means GI < 10%)”.
In the case of `O=c1c2ccccc2nc(COc2ccccc2)n1NS(=O)(=O)c1ccccc1` [Compound 5a, N-(4-oxo-2-(phenoxymethyl)quinazolin-3(4H)-yl)benzenesulfonamide], the “GI% at 10^−5 M” value (786-0) is reported as “– (– means GI < 10%)”, the “GI% at 10^−5 M” value (M14) is reported as “– (– means GI < 10%)” and the “GI% at 10^−5 M” value (ACHN) is reported as 11.23%. For the same compound, the “GI% at 10^−5 M” value (NCI-H322M) was “– (– means GI < 10%)” and the “GI% at 10^−5 M” value (CCRF-CEM) was “– (– means GI < 10%)”.
For `Cc1ccc(S(=O)(=O)Nn2c(COc3ccccc3)nc3ccccc3c2=O)cc1` [Compound 5b, 4-methyl-N-(4-oxo-2-(phenoxymethyl)quinazolin-3(4H)-yl)benzenesulfonamide], the “GI% at 10^−5 M” value (786-0) was “– (– means GI < 10%)”, the “GI% at 10^−5 M” value (SK-OV-3) was −4.74% and the “GI% at 10^−5 M” value (M14) was “– (– means GI < 10%)”. The “GI% at 10^−5 M” value (ACHN) was 15%, the “GI% at 10^−5 M” value (NCI-H322M) was “– (– means GI < 10%)” and the “GI% at 10^−5 M” value (CCRF-CEM) was “– (– means GI < 10%)”.
For `O=c1c2ccccc2nc(COc2ccccc2)n1NS(=O)(=O)c1ccc(Cl)cc1` [Compound 5c, 4-chloro-N-(4-oxo-2-(phenoxymethyl)quinazolin-3(4H)-yl)benzenesulfonamide], the “%G0-G1” value [1] was 55.29%, the “%G2/M” value [1] was 3.74% and the “%Pre-G1” value [1] was 28.65%. The “%S” value [1] was 40.97%, the “Comment (cell cycle)” value [1] was “Pre G1 apoptosis and cell growth arrest at S” and the “%G0-G1” value [2] was 39.53%. For the same compound, the “%G2/M” value [2] was 31.78%, the “%Pre-G1” value [2] was 44.22% and the “%S” value [2] was 28.69%. For the same compound, the “Comment (cell cycle)” value [2] was “Pre G1 apoptosis and cell growth arrest at G2/M”, the IC50 (CDK2) was 0.63 ± 0.022 µM and the “GI% at 10^−5 M” value (786-0) was “– (– means GI < 10%)”. For the same compound, the “GI% at 10^−5 M” value (M14) was 25.84%, the “GI% at 10^−5 M” value (ACHN) was “– (– means GI < 10%)” and the “GI% at 10^−5 M” value (NCI-H322M) was 17.13%. The “GI% at 10^−5 M” value (CCRF-CEM) was “– (– means GI < 10%)”, the IC50 [3] was 8.62 ± 0.13 µM and the IC50 [4] was 3.03 ± 0.38 µM. For the same compound, the IC50 [5] was 62.5 ± 3.5 µM.
With `COc1cc(C=Nn2c(COc3ccccc3)nc3ccccc3c2=O)ccc1O` [Compound 6a, 3-((4-hydroxy-3-methoxybenzylidene)amino)-2-(phenoxymethyl)quinazolin-4(3H)-one] the “GI% at 10^−5 M” value (786-0) was “– (– means GI < 10%)”, the “GI% at 10^−5 M” value (M14) was “– (– means GI < 10%)” and the “GI% at 10^−5 M” value (ACHN) was “– (– means GI < 10%)”. The “GI% at 10^−5 M” value (NCI-H322M) was “– (– means GI < 10%)” and the “GI% at 10^−5 M” value (CCRF-CEM) was “– (– means GI < 10%)”.
In the case of `O=c1c2ccccc2nc(COc2ccccc2)n1N=CC=Cc1ccccc1` [Compound 6b, 2-(phenoxymethyl)-3-((3-phenylallylidene)amino)quinazolin-4(3H)-one], the “GI% at 10^−5 M” value (786-0) is reported as “– (– means GI < 10%)”, the “GI% at 10^−5 M” value (M14) is reported as “– (– means GI < 10%)” and the “GI% at 10^−5 M” value (ACHN) is reported as “– (– means GI < 10%)”. The “GI% at 10^−5 M” value (NCI-H322M) was “– (– means GI < 10%)” and the “GI% at 10^−5 M” value (CCRF-CEM) was 15.66%.
In the case of `CN1CCN(CC(=O)Nn2c(COc3ccccc3)nc3ccccc3c2=O)CC1` [Compound 8a, 2–(4-methylpiperazin-1-yl)-N-(4-oxo-2-(phenoxymethyl)quinazolin-3(4H)-yl)acetamide], the IC50 (CDK2) is reported as 1.74 ± 0.062 µM, the “GI% at 10^−5 M” value (786-0) is reported as “– (– means GI < 10%)” and the “GI% at 10^−5 M” value (SK-OV-3) is reported as 22.99%. The “GI% at 10^−5 M” value (M14) was 21.06%, the “GI% at 10^−5 M” value (ACHN) was “– (– means GI < 10%)” and the “GI% at 10^−5 M” value (NCI-H322M) was “– (– means GI < 10%)”. The “GI% at 10^−5 M” value (CCRF-CEM) was 10.65%, the IC50 [4] was 6.22 ± 0.53 µM and the IC50 [5] was 37.3 ± 2.1 µM.
In the case of `O=C(CN1CCN(c2ccccc2)CC1)Nn1c(COc2ccccc2)nc2ccccc2c1=O` [Compound 8b, N-(4-oxo-2-(phenoxymethyl)quinazolin-3(4H)-yl)-2–(4-phenylpiperazin-1-yl)acetamid], the “GI% at 10^−5 M” value (786-0) is reported as “– (– means GI < 10%)”, the “GI% at 10^−5 M” value (M14) is reported as “– (– means GI < 10%)” and the “GI% at 10^−5 M” value (ACHN) is reported as “– (– means GI < 10%)”. The “GI% at 10^−5 M” value (NCI-H322M) was “– (– means GI < 10%)” and the “GI% at 10^−5 M” value (CCRF-CEM) was “– (– means GI < 10%)”.
With `COc1ccc(N2CCN(CC(=O)Nn3c(COc4ccccc4)nc4ccccc4c3=O)CC2)cc1` [Compound 8c, 2–(4-(4-methoxyphenyl)piperazin-1-yl)-N-(4-oxo-2-(phenoxymethyl)quinazolin-3(4H)-yl)acetamide] the “GI% at 10^−5 M” value (786-0) was “– (– means GI < 10%)”, the “GI% at 10^−5 M” value (M14) was “– (– means GI < 10%)” and the “GI% at 10^−5 M” value (ACHN) was “– (– means GI < 10%)”. The “GI% at 10^−5 M” value (NCI-H322M) was “– (– means GI < 10%)” and the “GI% at 10^−5 M” value (CCRF-CEM) was “– (– means GI < 10%)”.
